# Results from patent US12049450B2, “Pyridyloxy-carboxylate derivative and preparation method therefor, herbicidal composition, and use” (Qingdao Kingagroot Chemical Compound Co., Ltd., priority 2018, dated 2024).
# Assays:
# Assay in all cases: Post-emergence test experiment (greenhouse pot, spray at 2-3 leaf stage)
# Assay type in all cases: in vivo
# Conditions in all cases: 1000 g/ha; post-emergence spray at 2-3 leaf stage; assessed after 3 weeks; fresh weight inhibition rate
# [1] = tested on: Galium spurium
# In short: (§1)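 Weed seeds sown in soil-filled pots in greenhouse, sprayed at 2-3 leaf stage (2 weeks after sowing) with compound in acetone/tween-80 plus methyl oleate emulsible concentrate (1.5 L/ha) diluted in water. Fresh-weight growth inhibition scored after 3 weeks on 0-5 scale (5: >85%, 0: <5%).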
# [2] = tested on: Monochoria vaginalis
# In short: as §1
# [3] = tested on: Echinochloa crusgalli
# In short: as §1
# [4] = tested on: Abutilon theophrasti
# In short: as §1
# [5] = tested on: Digitaria sanguinalis
# In short: as §1
SMILES,Activity level (growth inhibition rate) Galium spurium [1],Activity level (growth inhibition rate) Monochoria Vaginalis [2],Activity level (growth inhibition rate) Echinochloa crusgalli [3],Activity level (growth inhibition rate) Abutilon theophrasti [4],Activity level (growth inhibition rate) Digitaria sanguinalis [5]
CC(Oc1nc(F)c(Cl)c(N)c1Cl)C(=O)SCc1cccc(F)c1 (stereo not drawn) [Compound 222],5 (Level 5: the growth inhibition rate is greater than 85%),5 (Level 5: the growth inhibition rate is greater than 85%),5 (Level 5: the growth inhibition rate is greater than 85%),5 (Level 5: the growth inhibition rate is greater than 85%),5 (Level 5: the growth inhibition rate is greater than 85%)
CC(Oc1nc(F)c(Cl)c(N)c1Cl)C(=O)SCc1ccnn1C (stereo not drawn) [Compound 132],5 (Level 5: the growth inhibition rate is greater than 85%),5 (Level 5: the growth inhibition rate is greater than 85%),5 (Level 5: the growth inhibition rate is greater than 85%),5 (Level 5: the growth inhibition rate is greater than 85%),5 (Level 5: the growth inhibition rate is greater than 85%)
CC(Oc1nc(F)c(Cl)c(N)c1Cl)C(=O)SCCc1ccc2ccsc2c1 (stereo not drawn) [Compound 179],5 (Level 5: the growth inhibition rate is greater than 85%),5 (Level 5: the growth inhibition rate is greater than 85%),5 (Level 5: the growth inhibition rate is greater than 85%),5 (Level 5: the growth inhibition rate is greater than 85%),5 (Level 5: the growth inhibition rate is greater than 85%)
CC(Oc1nc(F)c(Cl)c(N)c1Cl)C(=O)OCc1ccncc1 (racemic) [Compound 117],5 (Level 5: the growth inhibition rate is greater than 85%),5 (Level 5: the growth inhibition rate is greater than 85%),5 (Level 5: the growth inhibition rate is greater than 85%),5 (Level 5: the growth inhibition rate is greater than 85%),5 (Level 5: the growth inhibition rate is greater than 85%)
Cc1noc(C)c1COC(=O)C(C)Oc1nc(F)c(Cl)c(N)c1Cl (stereo not drawn) [Compound 147],5 (Level 5: the growth inhibition rate is greater than 85%),5 (Level 5: the growth inhibition rate is greater than 85%),5 (Level 5: the growth inhibition rate is greater than 85%),5 (Level 5: the growth inhibition rate is greater than 85%),5 (Level 5: the growth inhibition rate is greater than 85%)
CC(Oc1nc(F)c(Cl)c(N)c1Cl)C(=O)OCc1cccc2ccccc12 (stereo not drawn) [Compound 211],5 (Level 5: the growth inhibition rate is greater than 85%),5 (Level 5: the growth inhibition rate is greater than 85%),5 (Level 5: the growth inhibition rate is greater than 85%),5 (Level 5: the growth inhibition rate is greater than 85%),5 (Level 5: the growth inhibition rate is greater than 85%)
CC(Oc1nc(F)c(Cl)c(NCc2ccc(C(F)(F)F)o2)c1Cl)C(=O)SCc1ccccc1 (stereo not drawn) [Compound 239],5 (Level 5: the growth inhibition rate is greater than 85%),5 (Level 5: the growth inhibition rate is greater than 85%),5 (Level 5: the growth inhibition rate is greater than 85%),5 (Level 5: the growth inhibition rate is greater than 85%),5 (Level 5: the growth inhibition rate is greater than 85%)
CC(Oc1ncc(Cl)c(N)c1Cl)C(=O)SCc1ccccc1 (stereo not drawn) [Compound 23],5 (Level 5: the growth inhibition rate is greater than 85%),5 (Level 5: the growth inhibition rate is greater than 85%),5 (Level 5: the growth inhibition rate is greater than 85%),5 (Level 5: the growth inhibition rate is greater than 85%),5 (Level 5: the growth inhibition rate is greater than 85%)
COCOc1cccc(C)c1COC(=O)C(C)Oc1nc(F)c(Cl)c(N)c1Cl (racemic) [Compound 110],5 (Level 5: the growth inhibition rate is greater than 85%),5 (Level 5: the growth inhibition rate is greater than 85%),5 (Level 5: the growth inhibition rate is greater than 85%),5 (Level 5: the growth inhibition rate is greater than 85%),5 (Level 5: the growth inhibition rate is greater than 85%)
CC(Oc1nc(F)c(Cl)c(N)c1Cl)C(=O)SC(C)c1ncon1 (stereo not drawn) [Compound 150],5 (Level 5: the growth inhibition rate is greater than 85%),5 (Level 5: the growth inhibition rate is greater than 85%),5 (Level 5: the growth inhibition rate is greater than 85%),5 (Level 5: the growth inhibition rate is greater than 85%),5 (Level 5: the growth inhibition rate is greater than 85%)
CC(Oc1nc(F)c(Cl)c(N)c1Cl)C(=O)OCc1cccc(C(F)(F)F)c1 (stereo not drawn) [Compound 209],5 (Level 5: the growth inhibition rate is greater than 85%),5 (Level 5: the growth inhibition rate is greater than 85%),5 (Level 5: the growth inhibition rate is greater than 85%),5 (Level 5: the growth inhibition rate is greater than 85%),5 (Level 5: the growth inhibition rate is greater than 85%)
CC(Oc1nc(F)c(Cl)c(N)c1Cl)C(=O)OCc1ccns1 (stereo not drawn) [Compound 160],5 (Level 5: the growth inhibition rate is greater than 85%),5 (Level 5: the growth inhibition rate is greater than 85%),5 (Level 5: the growth inhibition rate is greater than 85%),5 (Level 5: the growth inhibition rate is greater than 85%),5 (Level 5: the growth inhibition rate is greater than 85%)
CC(Oc1nc(F)c(Cl)c(N)c1Cl)C(=O)SCc1ccc2nnccc2c1 (stereo not drawn) [Compound 188],5 (Level 5: the growth inhibition rate is greater than 85%),5 (Level 5: the growth inhibition rate is greater than 85%),5 (Level 5: the growth inhibition rate is greater than 85%),5 (Level 5: the growth inhibition rate is greater than 85%),5 (Level 5: the growth inhibition rate is greater than 85%)
CC(Oc1nc(F)c(Cl)c(N)c1Cl)C(=O)SCc1ccnnc1 (stereo not drawn) [Compound 123],5 (Level 5: the growth inhibition rate is greater than 85%),5 (Level 5: the growth inhibition rate is greater than 85%),5 (Level 5: the growth inhibition rate is greater than 85%),5 (Level 5: the growth inhibition rate is greater than 85%),5 (Level 5: the growth inhibition rate is greater than 85%)
CC(=O)Nc1ccc(CSC(=O)C(C)Oc2nc(F)c(Cl)c(N)c2Cl)cc1 (stereo not drawn) [Compound 97],5 (Level 5: the growth inhibition rate is greater than 85%),5 (Level 5: the growth inhibition rate is greater than 85%),5 (Level 5: the growth inhibition rate is greater than 85%),5 (Level 5: the growth inhibition rate is greater than 85%),5 (Level 5: the growth inhibition rate is greater than 85%)
